Read-outs that look alike come from different tables or passages of the source.
What was measured:
in vivo = conditions: Sprague Dawley, rat, po
Experimental: The test compound was formulated in 0.5% methyl-cellulose in water and dosed via oral gavage at 3.2 mg/kg and 100 mg/kg to Sprague Dawley rats. At various time points (typically 0.5, 1, 3, 6, 24 hr) post dosing, blood samples were removed via cardiac puncture and intact colons were excised from the rats. Blood samples were centrifuged at 1500×g for 15 min to collect plasma. Colons were washed with ice cold phosphate buffered saline (PBS), weighed, and homogenized at a dilution of 1:10 in PBS. Plasma and colon levels of test compound were determined by LC-MS analysis against analytical standards constructed into a standard curve in the test matrix. A colon to plasma ratio was determined as the ratio of the colon AUC to the plasma AUC in μg hr/g.

[1] = test system: IFNγ stimulated STAT1 phosphorylation in CD14+ monocytes; assay: Cellular JAK potency assay: inhibition of IFNγ-induced pSTAT1; type: cell-based; conditions: Homo sapiens, Monocyte
Experimental: The potency of test compounds for inhibition of interferon gamma (IFNγ) stimulated STAT1 phosphorylation was measured in CD14-positive (CD14+) monocytes derived from human whole blood (Stanford Blood Center) using flow cytometry. Because IFNγ signals through JAK, this assay provides a measure of JAK cellular potency.
Monocytes were identified using a fluorescein isothiocyanate (FITC) conjugated anti-CD14 antibody (Clone RM052, Beckman Coulter), and an Alexa Fluor 647 conjugated anti-pSTAT1 antibody (pY701, Clone 4a, BD Biosciences) was used to detect STAT1 phosphorylation.
Human peripheral blood mononuclear cells (PBMC) were isolated from human whole blood of healthy donors using a ficoll gradient. […] Cells were washed twice with FACS buffer, and then resuspended in 1:10 anti-pSTAT1 Alexa Fluor 647:FACS buffer (100 μL) for 30 min at RT in the dark, washed twice in FACS buffer, and analyzed using a LSRII flow cytometer (BD Biosciences).
To determine the inhibitory potency of test compounds, the median fluorescent intensity (MFI) of pSTAT1 was measured in CD14+ monocytes. IC50 values were determined from analysis of the inhibition curves of MFI vs compound concentration. Data are expressed as pIC50 (negative decadic logarithm IC50) values (mean±standard deviation).

JAK1 = JAK1 (Homo sapiens (Human), UniProt P23458); assay: LanthaScreen JAK biochemical assay, JAK1
JAK1, sequence (P23458 whole entry): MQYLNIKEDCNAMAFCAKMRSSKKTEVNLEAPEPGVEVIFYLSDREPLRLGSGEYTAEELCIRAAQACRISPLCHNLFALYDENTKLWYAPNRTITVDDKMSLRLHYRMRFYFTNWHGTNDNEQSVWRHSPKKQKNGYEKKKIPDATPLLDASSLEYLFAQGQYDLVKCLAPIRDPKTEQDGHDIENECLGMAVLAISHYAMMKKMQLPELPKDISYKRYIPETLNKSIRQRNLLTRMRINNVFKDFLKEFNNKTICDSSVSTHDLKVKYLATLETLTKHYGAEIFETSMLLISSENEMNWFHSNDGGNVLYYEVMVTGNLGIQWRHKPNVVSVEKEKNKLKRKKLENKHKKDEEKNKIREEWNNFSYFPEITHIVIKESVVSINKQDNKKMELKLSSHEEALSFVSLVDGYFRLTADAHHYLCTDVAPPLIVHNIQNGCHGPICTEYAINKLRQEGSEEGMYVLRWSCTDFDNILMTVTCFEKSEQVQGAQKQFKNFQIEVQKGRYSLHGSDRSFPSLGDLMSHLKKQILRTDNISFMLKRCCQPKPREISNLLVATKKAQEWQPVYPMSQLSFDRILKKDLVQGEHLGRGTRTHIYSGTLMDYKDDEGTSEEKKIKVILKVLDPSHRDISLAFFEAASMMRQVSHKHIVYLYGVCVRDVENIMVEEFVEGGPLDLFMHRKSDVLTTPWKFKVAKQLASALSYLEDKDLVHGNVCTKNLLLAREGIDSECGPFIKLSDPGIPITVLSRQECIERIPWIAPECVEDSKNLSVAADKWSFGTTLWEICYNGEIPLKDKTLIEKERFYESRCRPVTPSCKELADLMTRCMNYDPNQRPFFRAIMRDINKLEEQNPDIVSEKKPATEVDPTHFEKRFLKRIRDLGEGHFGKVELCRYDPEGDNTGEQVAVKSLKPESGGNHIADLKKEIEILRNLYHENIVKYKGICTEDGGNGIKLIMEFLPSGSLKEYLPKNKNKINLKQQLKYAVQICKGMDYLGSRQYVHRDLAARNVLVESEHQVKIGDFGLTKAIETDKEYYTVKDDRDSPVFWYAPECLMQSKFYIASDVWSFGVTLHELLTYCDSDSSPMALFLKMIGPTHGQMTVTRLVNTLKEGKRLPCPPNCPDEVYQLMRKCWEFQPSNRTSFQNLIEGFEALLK
Experimental: A panel of four LanthaScreen JAK biochemical assays (JAK1, 2, 3 and Tyk2) were carried in a common kinase reaction buffer (50 mM HEPES, pH 7.5, 0.01% Brij-35, 10 mM MgCl2, and 1 mM EGTA). Recombinant GST-tagged JAK enzymes and a GFP-tagged STAT1 peptide substrate were obtained from Life Technologies.

[2] = in vivo
Text: The objective of this assay was to determine the epidermal, dermal and plasma pharmacokinetics of a test compound following a 24 hr exposure to intact mouse or mini-pig skin.
Twenty-four hours prior to dosing the hair was shaved from the back of 25 g male Balb/c mice exposing an area at of least 6 cm^2 (about 10% of body surface) and, in a separate experiment, of 10 kg Gottingen mini-pigs exposing an area of at least 450 cm^2 (about 10% of body surface). […] The skin was covered with an adhesive cover to prevent loss of compound to the cage or bedding.
Following 24 h exposure, the backs were gently washed with soap and water to remove non-absorbed drug and patted dry. Immediately following this washing, blood was drawn by cardiac puncture from the mice and via venipuncture from the mini-pigs. The outer skin (stratum corneum) was then removed by adhesive tape stripping. Upon exposure of the epidermis a 0.5 cm punch biopsy was taken. The epidermis and dermis were quickly separated, weighed and snap frozen.

Structure (SMILES): COc1cc(Nc2cc(CO)[nH]n2)nc(N(C)[C@@H]2C[C@H]3CCC[C@@H](C2)N3S(=O)(=O)N2CC(C#N)C2)n1 [Example 2, 1-(((1R,3s,5S)-3-((4-((5-(Hydroxymethyl)-1H-pyrazol-3-yl)amino)-6-methoxypyrimidin-2-yl)(methyl)amino)-9-azabicyclo[3.3.1]nonan-9-yl)sulfonyl)azetidine-3-carbonitrile]
- Kp (in vivo; 5 mg/kg): > 250
- Kp (in vivo; 100 mg/kg): > 1200
- IC50 ([1]; IFNγ-induced pSTAT1, CD14+ monocytes, read-out: pIC50 value (converted)): ~25.1 nM
- IC50 ([1]; cellular assay, Assay 5, read-out: IC50 for inhibition of IFNγ): ≤ 50 nM
- JAK 1 (pKi) (JAK1): A (A represents a pKi value≥10 (Ki≤0.1 nM))
- duration of sustained dermal levels ([2]; Gottingen, minipig): at least 7 days
- duration of sustained dermal levels ([2]; male, Balb/c, mouse): at least 2 days

— patent US10028960B2, “Pyrimidine compounds as JAK kinase inhibitors” (THERAVANCE BIOPHARMA R&D IP, LLC, priority 2016, dated 2018)
